The source of these data is patent publication US5817677A, “5-membered heterocycles, medicaments containing these compounds, their use and processes for their preparation” (priority 1995, dated 1998).

One experiment has as its system human platelets. Nature of the experiment: Inhibition of the binding of ^3 H-BIBU 52 to human platelets (fibrinogen binding test). Conditions: ^3 H-BIBU 52 5 nM, human platelet-rich plasma, room temperature, 20 minutes; 50% inhibition of binding. The procedure:
1. Inhibition of the binding of ^3 H-BIBU 52 to human platelets
The free and bound ligand is separated by centrifugation and quantitatively determined by scintillation counting. From the measurements, the inhibition of ^3 H-BIBU 52 binding by the test substance is determined.
For this purpose, donor blood is taken from an anticubital vein and anticoagulated with trisodium citrate (final concentration 13 mM). The blood is centrifuged at 170×g for 10 minutes and the supernatant platelet-rich plasma (PRP) is removed. The remaining blood is intensely centrifuged off once more to obtain plasma. The PRP is diluted 1:10 with autologous plasma. […] are incubated with […] of physiological saline solution, 100 ml of test substance solution, 50 ml of ^14 C-sucrose (3700 Bq) and 50 ml of ^3 H-BIBU-52 (final concentration: 5 nM at room temperature for 20 minutes. To measure the non-specific binding, instead of the test substance 5 ml of BIBU 52 (final concentration: […]) are employed. The samples are centrifuged at 10,000×g for 20 seconds and the supernatant is removed. 100 ml of this are measured to determine the free ligand. The pellet is dissolved in 500 ml of 0.2N NaOH, and 450 ml are treated with 2 ml of scintillator and 25 ml of 5N Hcl and measured. The residual plasma still remaining in the pellet is determined from the ^14 C content, the bound ligand from ^3 H-measurement.

The next experiment deals with platelet aggregation. Nature of the experiment: Inhibition of collagen-induced platelet aggregation (Born and Cross) in platelet-rich plasma. To be noted: human platelet-rich plasma, 10 minutes preincubation at 37° C., 50% change in optical density. Format: cell-based, human (platelet-rich plasma of healthy subjects). The method, then: 2. Antithrombotic effect Platelets aggregation is measured by the method of Born and Cross (J. Physiol. 170, 397 (1964)) in platelet-rich plasma of healthy subjects. To inhibit clotting, the blood is treated with sodium citrate, 3.14% in the volume ratio 1:10. Collagen-induced aggregation The course of the decrease in the optical density of the platelet suspension is measured and recorded photometrically after addition of the aggregation-inducing substance. From the angle of inclination of the density curve, the aggregation rate is deduced. The point of the curve at which the greatest light transmission exists is used to calculate the optical density. The amount of collagen is selected to be as low as possible, but in such a way that a reaction curve with an irreversible course results. Commercially available collagen from Hormonchemie, Munich, is used. Before the addition of collagen, the plasma is in each case incubated at 37° C. with the substance for 10 minutes. From the measurements obtained, an EC50 is determined graphically which relates to a 50% change in the optical density in the sense of an inhibition of aggregation.

Structures can show the parent of a compound that is named as a salt.

The IC50 is the concentration that inhibits the measured activity by half. Usually EC50 stands for the concentration giving half of the maximal effect. High values mean a less potent agent, low ones a more potent agent. As for `COC(=O)COc1ccc(NC(=O)c2sc(C3CCNCC3)nc2C)cc1` [2(3), 5-[[4-(Methoxycarbonylmethoxy)phenyl]aminocarbonyl]-4-methyl-2-(4-piperidyl)-1,3-thiazole hydrobromide], the IC50 with human platelets turned out to be 300 nM. Moreover, in the experiment on platelet aggregation, the EC50 was determined as 140 nM.

With `O=C(N[C@H]1CC[C@H](C(=O)O)CC1)c1cn(CCC2CCNCC2)cn1` [4(27), 4-[[trans-4-Carboxycyclohexyl]aminocarbonyl]-1-[2-(4-piperidyl)ethyl]imidazole dihydrochloride], in the experiment on human platelets, the IC50 was 190 nM. In the experiment on platelet aggregation, this compound registered an EC50 of 280 nM.

For `O=C(O)CO[C@H]1CC[C@H](NC(=O)c2cnc(C3CCNCC3)s2)CC1` [2(12), 5-[[trans-4-(Carboxymethoxy)cyclohexyl]aminocarbonyl]-2-(4-piperidyl)-1,3-thiazole hydrobromide], in the experiment on human platelets, the IC50 worked out at 72 nM. The same compound had an EC50 in the experiment with platelet aggregation of 140 nM.

With `O=C(O)CC[C@H]1CC[C@H](NC(=O)c2cnc(C3CCNCC3)s2)CC1` [4(20), 5-[[trans-4-(2-Carboxyethyl)cyclohexyl]aminocarbonyl]-2-(4-piperidyl)-1,3-thiazole hydrobromide], the IC50 in the experiment with human platelets was 63 nM. This compound registered an EC50 in the experiment on platelet aggregation of 120 nM.

`O=C(/C=C/c1cn(C2CCNCC2)cn1)N[C@H]1CC[C@H](C(=O)O)CC1` [4(8), 4-[trans-2-[(trans-4-Carboxycyclohexyl)aminocarbonyl]-ethenyl]-1-(4-piperidyl)imidazole dihydrochloride] came in with an IC50 with human platelets of 2500 nM. The compound further displayed an EC50 in the experiment on platelet aggregation of 1800 nM.

As for `O=C(O)COc1ccc(NC(=O)c2nnc(C3CCNCC3)s2)cc1` [4(6), 5-[[4-(Carboxymethoxy)phenyl]aminocarbonyl]-2-(4piperidyl)-1,3,4-thiadiazole hydrochloride], in the experiment on human platelets, the IC50 stood at 64 nM. This compound also showed an EC50 in the experiment on platelet aggregation of 170 nM.

Compound `O=C(O)COc1ccc(NC(=O)c2cnc(C3CCNCC3)s2)cc1` [4(19), 5-[[4-(Carboxymethoxy)phenyl]aminocarbonyl]-2-(4-piperidyl)-1,3-thiazole hydrate] returned an IC50 in the experiment with human platelets of 38 nM. Further, a half-maximal effect in the experiment on platelet aggregation (EC50) was put at 100 nM.

In the case of `Cc1nc(C2CCNCC2)sc1C(=O)Nc1ccc(OCC(=O)O)cc1` [4(3), 5-[[4-(Carboxymethoxy)phenyl]aminocarbonyl]-4-methyl-2-(4-piperidyl)-1,3-thiazole hydrobromide], the IC50 in the experiment with human platelets was found to be 45 nM. The EC50 in the experiment with platelet aggregation is 130 nM.

On to `CS(=O)(=O)N(CC(=O)O)[C@H]1CC[C@H](C(=O)Nc2cn(C3CCNCC3)cn2)CC1` [5(2), 4-[[trans-4-(N-Carboxymethyl-N-methanesulphonylamino)-cyclohexyl]carbonylamino]-1-(4-piperidyl)imidazole dihydrochloride], for which the IC50 in the experiment on human platelets is 1600 nM. Moreover, in the experiment with platelet aggregation, the EC50 amounted to 3800 nM.

Compound `O=C(O)CC[C@H]1CC[C@H](NC(=O)c2cn(C3CCNCC3)cn2)CC1` [Example 4, 4-[[trans-4-(2-Carboxyethyl)cyclohexyl]aminocarbonyl]-1-(4-piperidyl)imidazole dihydrochloride] displayed a 50% inhibitory concentration (IC50) in the experiment on human platelets of 120 nM. Further, the EC50 in the experiment on platelet aggregation was 160 nM.
